Measured values published in patent US10597367B2, “Metabotropic glutamate receptor negative allosteric modulators (NAMs) and uses thereof” (Sanford Burnham Prebys Medical Discovery Institute, priority 2014, dated 2020).
Read-outs that look alike come from different tables or passages of the source.

What was measured:
[1] = tested on: R6/2 mice; details: daily subcutaneous 20 mg/kg (MTD) beginning at 4 weeks; cited from earlier work
[2] = tested on: cultured spinal cord astrocytes; details: astrocytes from wild-type and mGlu2 knockout mice, not mGlu3 knockout; cited from earlier work
[3] = tested on: wild-type and mGlu2 knockout mice; details: acute 0.5, 1 or 5 mg/kg, i.p.; not in mGlu3 knockout mice; cited from earlier work
[4] = tested on: SOD1G93A mice; details: continuous treatment 1 or 5 mg/kg/day; cited from earlier work
[5] = tested on: reserpine-treated rat; details: cited from earlier work
[6] = target: mGlu2 receptor (Rattus norvegicus (Rat), UniProt P31421); experiment: mGlu2 in vitro GIRK thallium flux assay; assay type: cell-based; details: NAM, HEK-293 GIRK cells
Description: All cell culture reagents were purchased from Invitrogen Corp. (Carlsbad, Calif.) unless otherwise noted. Compound activity at the group II (mGlu2 and mGlu3) mGlus was assessed using thallium flux through GIRK channels. Briefly, cells were plated into 384-well, black-walled, clear-bottomed poly-D-lysine-coated plates at a density of 15,000 cells/20 μL/well in DMEM containing 10% dialyzed FBS, 20 mM HEPES, and 100 units/mL penicillin/streptomycin (assay media). Plated cells were incubated overnight at 37° C. in the presence of 5% CO2. […] Cells were incubated for 1 h at room temperature, and the dye exchanged to assay buffer using an ELX405, leaving 20 μL/well. Test compounds were diluted to 2 times their final desired concentration in assay buffer (0.3% DMSO final concentration). […] Cell plates and compound plates were loaded onto a kinetic imaging plate reader (FDSS 6000 or 7000; Hamamatsu Corporation, Bridgewater, N.J.). Appropriate baseline readings were taken (10 images at 1 Hz; excitation, 470±20 nm; emission, 540±30 nm) and test compounds were added in a 20 μL volume and incubated for either 2.5 min or 60 min as indicated before the addition of 10 μL of thallium buffer with or without agonist. After the addition of agonist, data were collected for approximately an additional 2.5 min. Data were analyzed using Excel (Microsoft Corp, Redmond, Wash.). The slope of the fluorescence increase beginning 5 s after thallium/agonist addition and ending 15 s after thallium/agonist addition was calculated, corrected to vehicle and maximal agonist control slope values, and plotted in using either XLfit (ID Business Solutions Ltd) or Prism software (GraphPad Software, San Diego, Calif.) to generate concentration-response curves. Potencies were calculated from fits using a four-point parameter logistic equation. For concentration-response curve experiments, compounds were serially diluted 1:3 into 10 point concentration response curves and were transferred to daughter plates using an Echo acoustic plate reformatter (Labcyte, Sunnyvale, Calif.). Test compounds were applied and followed by EC80 concentrations of glutamate.

[7] = target: mGlu3 receptor (Rattus norvegicus (Rat), UniProt P31422); experiment: mGlu3 in vitro GIRK thallium flux assay; assay type: cell-based; details: NAM; test compound incubated 2.5 min before EC80 glutamate; HEK-293 GIRK cells
Description: All cell culture reagents were purchased from Invitrogen Corp. (Carlsbad, Calif.) unless otherwise noted. Compound activity at the group II (mGlu2 and mGlu3) mGlus was assessed using thallium flux through GIRK channels. Briefly, cells were plated into 384-well, black-walled, clear-bottomed poly-D-lysine-coated plates at a density of 15,000 cells/20 μL/well in DMEM containing 10% dialyzed FBS, 20 mM HEPES, and 100 units/mL penicillin/streptomycin (assay media). Plated cells were incubated overnight at 37° C. in the presence of 5% CO2. […] Cells were incubated for 1 h at room temperature, and the dye exchanged to assay buffer using an ELX405, leaving 20 μL/well. Test compounds were diluted to 2 times their final desired concentration in assay buffer (0.3% DMSO final concentration). […] Cell plates and compound plates were loaded onto a kinetic imaging plate reader (FDSS 6000 or 7000; Hamamatsu Corporation, Bridgewater, N.J.). Appropriate baseline readings were taken (10 images at 1 Hz; excitation, 470±20 nm; emission, 540±30 nm) and test compounds were added in a 20 μL volume and incubated for either 2.5 min or 60 min as indicated before the addition of 10 μL of thallium buffer with or without agonist. […] Data were analyzed using Excel (Microsoft Corp, Redmond, Wash.). […] Potencies were calculated from fits using a four-point parameter logistic equation. […]

[8] = tested on: Male Wistar rats; experiment: Forced Swim Test (FST); assay type: in vivo; details: rat, FIG. 1
Description: Male Wistar rats (Charles River, Hollister, Calif.), weighing 175-225 g (Charles River, Portage, Ind.) used for the forced swim test study were housed in pairs with food and water available ad libitum, except during testing, in a temperature and humidity controlled vivarium (21° C.). Rats were maintained on a 12-hour reverse light-dark cycle with lights on at 6 pm. All experimental procedures occurred during the dark cycle, were approved by the Institutional Animal Care and Use Committee of the Scripps Research Institute, and were in accordance with the Association for the Assessment and Accreditation of Laboratory Animal Care (AAALAC) guidelines. […]
After the habituation swim and 24 hours prior to the test swim, rats were administered one of three doses of a mGlu2/3 NAM, with doses and pretreatment time based on maximal brain penetration as determined by PK studies for each compound. Blood and brain tissue were collected immediately after the FST and the PK properties of each compound were analyzed together with FST behavior. […] Twenty-four hours after their first exposure, the animals were again placed in the swim apparatus for 5 min, and behaviors were monitored from above by video camera for subsequent analysis. The rater of the behavioral patterns was blind with respect to the experimental conditions being scored. […]

mGlu2 receptor, sequence (P31421 19-872): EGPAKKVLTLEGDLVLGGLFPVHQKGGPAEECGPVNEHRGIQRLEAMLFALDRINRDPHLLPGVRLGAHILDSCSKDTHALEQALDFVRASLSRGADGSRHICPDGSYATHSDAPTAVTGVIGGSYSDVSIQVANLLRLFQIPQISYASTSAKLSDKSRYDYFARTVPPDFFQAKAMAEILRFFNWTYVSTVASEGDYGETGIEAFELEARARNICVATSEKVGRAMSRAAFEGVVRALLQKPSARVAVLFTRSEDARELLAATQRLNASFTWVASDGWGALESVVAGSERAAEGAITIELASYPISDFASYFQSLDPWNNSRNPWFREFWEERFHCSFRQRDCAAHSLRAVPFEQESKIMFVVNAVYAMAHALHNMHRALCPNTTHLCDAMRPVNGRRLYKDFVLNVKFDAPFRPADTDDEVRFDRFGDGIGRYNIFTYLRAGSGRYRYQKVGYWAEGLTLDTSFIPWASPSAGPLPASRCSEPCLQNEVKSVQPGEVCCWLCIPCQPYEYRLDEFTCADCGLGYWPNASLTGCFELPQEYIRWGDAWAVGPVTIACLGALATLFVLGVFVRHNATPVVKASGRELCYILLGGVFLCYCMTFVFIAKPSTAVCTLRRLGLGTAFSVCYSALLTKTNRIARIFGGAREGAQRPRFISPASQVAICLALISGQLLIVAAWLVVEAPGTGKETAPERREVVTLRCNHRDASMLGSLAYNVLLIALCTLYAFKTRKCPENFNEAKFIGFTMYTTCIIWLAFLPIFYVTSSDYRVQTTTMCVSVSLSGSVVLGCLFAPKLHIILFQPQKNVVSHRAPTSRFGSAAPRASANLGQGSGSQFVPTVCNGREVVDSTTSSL
mGlu3 receptor, sequence (P31422 23-879): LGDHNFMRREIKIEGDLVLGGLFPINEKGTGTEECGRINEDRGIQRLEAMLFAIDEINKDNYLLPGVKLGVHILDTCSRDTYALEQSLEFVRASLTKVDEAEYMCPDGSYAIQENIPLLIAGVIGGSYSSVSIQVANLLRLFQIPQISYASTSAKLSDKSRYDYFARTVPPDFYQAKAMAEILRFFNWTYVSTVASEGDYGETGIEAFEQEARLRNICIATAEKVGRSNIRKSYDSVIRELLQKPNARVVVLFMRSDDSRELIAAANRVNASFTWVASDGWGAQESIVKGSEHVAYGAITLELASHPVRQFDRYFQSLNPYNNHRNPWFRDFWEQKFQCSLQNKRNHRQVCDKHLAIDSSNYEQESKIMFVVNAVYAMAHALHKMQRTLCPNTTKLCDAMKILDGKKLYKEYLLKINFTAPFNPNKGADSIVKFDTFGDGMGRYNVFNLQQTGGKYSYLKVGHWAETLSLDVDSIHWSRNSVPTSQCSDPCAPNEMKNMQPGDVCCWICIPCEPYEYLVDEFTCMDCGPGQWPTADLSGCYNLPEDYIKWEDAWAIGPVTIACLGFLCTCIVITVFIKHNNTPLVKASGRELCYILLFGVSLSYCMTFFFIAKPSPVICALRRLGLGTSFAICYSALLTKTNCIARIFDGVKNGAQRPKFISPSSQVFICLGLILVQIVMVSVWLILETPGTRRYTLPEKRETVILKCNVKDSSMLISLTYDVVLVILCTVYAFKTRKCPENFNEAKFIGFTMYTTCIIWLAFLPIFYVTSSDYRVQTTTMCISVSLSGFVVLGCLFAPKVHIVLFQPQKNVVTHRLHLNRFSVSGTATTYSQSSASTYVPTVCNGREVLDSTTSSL

Compound: N[C@@]1(C(=O)O)CO[C@H]2[C@H](C(=O)O)[C@H]21 [LY379268]
- phenotype in R6/2 mice [1]: dramatically improves the phenotype
- GDNF levels in astrocytes [2]: enhanced GDNF levels
- spinal cord GDNF levels [3]: enhanced spinal cord GDNF levels
- neurological disability in SOD1G93A mice [4]: beneficial effect on neurological disability
- reserpine-induced akinesia after systemic administration ([5]; 0.1, 1, 10 mg/kg ip): did not reverse reserpine-induced akinesia
- locomotor activity after intracerebroventricular administration ([5]; 1, 5, 10, 20 nmol/2 μl icv, reserpine (5 mg/kg ip)-treated rat): dose-dependent increase in locomotor activity

Compound: Cc1cc2c(cc1C(F)(F)F)NC(=O)CC(c1cccc(Oc3ccccc3)c1)N2 (stereo not shown) [Example 177, 7-Methyl-4-(3-phenoxyphenyl)-8-(trifluoromethyl)-4,5-dihydro-1H-benzo[b][1,4]diazepin-2(3H)-one]
- EC50 ([6]; test compound incubated 2.5 min before EC80 glutamate, read-out: mGlu2 EC50 (μM) (2.5 min)): > 10 µM
- EC50 ([6]; read-out: mGlu2 EC50 (μM) (60 min), test compound incubated 60 min before EC80 glutamate): > 10 µM
- EC50 [7]: > 10 µM

Compound: N#Cc1cc(C2=Nc3ccc(Br)cc3NC(=O)C2)ccn1 [Example 182, 4-(8-Bromo-2-oxo-2,3-dihydro-1H-benzo[b][1,4]diazepin-4-yl)picolinonitrile]
- antidepressant activity in the Forced Swim Test (immobility, swimming) [8]: antidepressant activity by decreasing immobility and increasing swimming
